Reference: patent US20230085307A1, “PYRIDAZINONE COMPOUND AND HERBICIDE” (NISSAN CHEMICAL CORPORATION, priority 2019, published 2023)

Key:
[1] = test system: blackgrass; assay: Test Example 4: herbicidal effect by soil treatment (Table 19, symbol J); type: in vivo, blackgrass (Alopecurus myosuroides)
In short: (§1)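 Herbicidal effect was rated 3 weeks after treatment, using the scoring criteria of an earlier test. The compound, formulated as an emulsion and diluted in water to a set herbicide amount, had been sprayed uniformly on soil over freshly sown seeds. Growth took place in a greenhouse at 25° C. to 30° C.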

[2] = test system: Japanese bulrush; assay: Test Example 2: herbicidal activity, application during weed generation under submerged conditions (Table 17, symbol B); type: in vivo, Japanese bulrush (Schoenoplectus juncoides); settings: application during weed generation, submerged conditions
In short: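 Herbicide emulsion, diluted with water to the chosen amount, is applied onto 4 cm floodwater over alluvial soil where the weeds were co-sown and raised at 25–30° C. Application timing: 1–2 leaves. Assessment: three weeks afterwards.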

[3] = test system: southern crabgrass; assay: Test Example 5: herbicidal effect by foliage application, plastic box (Table 20, symbol F); type: in vivo, southern crabgrass (Digitaria ciliaris); settings: foliage application, three weeks after application
In short: (§2)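 Foliar spray test: emulsion formulation diluted in water to a set application rate, sprayed onto 14-day-old plants raised in diluvial soil at 25° C to 30° C under glass. Both herbicidal effect and crop effect rated visually three weeks later.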

[4] = test system: oval-leafed pondweed; assay: Test Example 1: herbicidal activity, application before weed generation under submerged conditions (Table 16, symbol C); type: in vivo, oval-leafed pondweed (Monochoria vaginalis)
In short: (§3)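 Emulsion formulation, water-diluted to set dose, was put onto the flooded surface (4 cm depth, alluvial soil) the same day weeds were sown and 2.5-leaf rice transplanted. After 3 weeks at 25-30 °C under glass, each species was rated 0 (≤5% kill) to 5 (≥90% kill).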

[5] = test system: southern crabgrass; assay: Test Example 4: herbicidal effect by soil treatment (Table 19, symbol F); type: in vivo, southern crabgrass (Digitaria ciliaris)
In short: as §1

[6] = test system: persian speedwell; assay: Test Example 5: herbicidal effect by foliage application, plastic box (Table 20, symbol R); type: in vivo, Persian speedwell (Veronica persica); settings: foliage application, three weeks after application
In short: as §2

[7] = test system: wild oat; assay: Test Example 4: herbicidal effect by soil treatment (Table 19, symbol I); type: in vivo, wild oat (Avena fatua)
In short: as §1

[8] = test system: chickweed; assay: Test Example 5: herbicidal effect by foliage application, plastic box (Table 20, symbol P); type: in vivo, common chickweed (Stellaria media); settings: foliage application, three weeks after application
In short: as §2

[9] = test system: blackgrass; assay: Test Example 5: herbicidal effect by foliage application, plastic box (Table 20, symbol J); type: in vivo, blackgrass (Alopecurus myosuroides); settings: foliage application, three weeks after application
In short: as §2

[10] = test system: Italian ryegrass; assay: Test Example 5: herbicidal effect by foliage application, plastic box (Table 20, symbol K); type: in vivo, Italian ryegrass (Lolium multiflorum); settings: foliage application, three weeks after application
In short: as §2

[11] = test system: Japanese bulrush; assay: Test Example 1: herbicidal activity, application before weed generation under submerged conditions (Table 16, symbol B); type: in vivo, Japanese bulrush (Schoenoplectus juncoides)
In short: as §3

[12] = test system: rice flat sedge; assay: Test Example 3: herbicidal effect by foliage application, Wagner pot (Table 18, symbol E); type: in vivo, rice flat sedge (Cyperus iria)
In short: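 Plants were sown in alluvial soil held under 0.1–0.5 cm standing water and grown 14 days in a greenhouse at 25–30 °C. An emulsifiable formulation, water-diluted to the set dose, was then sprayed onto the foliage, and effects were scored three weeks later using previously defined criteria.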

[13] = test system: barnyard grass; assay: Test Example 4: herbicidal effect by soil treatment (Table 19, symbol H); type: in vivo, barnyard grass (Echinochloa crus-galli)
In short: as §1

[14] = test system: lambsquarters; assay: Test Example 4: herbicidal effect by soil treatment (Table 19, symbol O); type: in vivo, lambsquarters (Chenopodium album)
In short: as §1

[15] = test system: Italian ryegrass; assay: Test Example 4: herbicidal effect by soil treatment (Table 19, symbol K); type: in vivo, Italian ryegrass (Lolium multiflorum)
In short: as §1

[16] = test system: chickweed; assay: Test Example 4: herbicidal effect by soil treatment (Table 19, symbol P); type: in vivo, common chickweed (Stellaria media)
In short: as §1

[17] = test system: persian speedwell; assay: Test Example 4: herbicidal effect by soil treatment (Table 19, symbol R); type: in vivo, Persian speedwell (Veronica persica)
In short: as §1

[18] = amount of applied herbicide 304 g/ha
[19] = amount of applied herbicide 320 g/ha
[20] = amount of applied herbicide 80 g/ha

Structure (SMILES) | J: blackgrass, herbicidal effect grade [1, 19] | herbicidal effect rating, B: Japanese bulrush ([2]; AAH 320 g/ha) | F: southern crabgrass, herbicidal effect grade ([3]; 320 g/ha) | Herbicidal effect, C: oval-leafed pondweed [4, 19] | F: southern crabgrass, herbicidal effect grade [5, 19] | R: persian speedwell, herbicidal effect grade ([6]; 320 g/ha) | I: wild oat, herbicidal effect grade [7, 19] | P: chickweed, herbicidal effect grade ([8]; 320 g/ha) | J: blackgrass, herbicidal effect grade ([9]; 320 g/ha) | K: Italian ryegrass, herbicidal effect grade ([10]; 320 g/ha) | Herbicidal effect, B: Japanese bulrush [11, 19] | herbicidal effect on rice flat sedge (E) ([12]; 320 g/ha) | H: barnyard grass, herbicidal effect grade [13, 19] | O: lambsquarters, herbicidal effect grade [14, 19] | K: Italian ryegrass, herbicidal effect grade [15, 19] | P: chickweed, herbicidal effect grade [16, 19] | R: persian speedwell, herbicidal effect grade [17, 19] | further results
CCCC(=O)Oc1c(C)nn(C)c(=O)c1-c1c(-c2ccccc2OCC)sc2cc(C)ccc12 [3-054] |  |  |  |  |  |  |  |  |  |  |  |  |  |  |  |  |  | J: blackgrass, herbicidal effect grade [1, 18]: 3 (Herbicidal rate of 40% or more and less than 70%); herbicidal effect rating, B: Japanese bulrush ([2]; AAH 304 g/ha): 3 (Herbicidal rate of 40% or more and less than 70%); F: southern crabgrass, herbicidal effect grade ([3]; 304 g/ha): 5 (Herbicidal rate of 90% or more (almost completely withered)); Herbicidal effect, C: oval-leafed pondweed [4, 18]: 4 (Herbicidal rate of 70% or more and less than 90%); F: southern crabgrass, herbicidal effect grade [5, 18]: 4 (Herbicidal rate of 70% or more and less than 90%); R: persian speedwell, herbicidal effect grade ([6]; 304 g/ha): 5 (Herbicidal rate of 90% or more (almost completely withered)); I: wild oat, herbicidal effect grade [7, 18]: 1 (Herbicidal rate of 5% or more and less than 20%); P: chickweed, herbicidal effect grade ([8]; 304 g/ha): 5 (Herbicidal rate of 90% or more (almost completely withered)); J: blackgrass, herbicidal effect grade ([9]; 304 g/ha): 4 (Herbicidal rate of 70% or more and less than 90%); K: Italian ryegrass, herbicidal effect grade ([10]; 304 g/ha): 5 (Herbicidal rate of 90% or more (almost completely withered)); Herbicidal effect, B: Japanese bulrush [11, 18]: 5 (Herbicidal rate of 90% or more (almost completely withered)); herbicidal effect on rice flat sedge (E) ([12]; 304 g/ha): 5 (Herbicidal rate of 90% or more (almost completely withered)); H: barnyard grass, herbicidal effect grade [13, 18]: 0 (Herbicidal rate of 5% or less (almost no effect)); O: lambsquarters, herbicidal effect grade [14, 18]: 0 (Herbicidal rate of 5% or less (almost no effect)); K: Italian ryegrass, herbicidal effect grade [15, 18]: 3 (Herbicidal rate of 40% or more and less than 70%); P: chickweed, herbicidal effect grade [16, 18]: 3 (Herbicidal rate of 40% or more and less than 70%); R: persian speedwell, herbicidal effect grade [17, 18]: 3 (Herbicidal rate of 40% or more and less than 70%)
COc1cc(F)ccc1-c1sc2cc(C)ccc2c1-c1c(O)c(C)nn(C)c1=O [3-055] | 2 (Herbicidal rate of 20% or more and less than 40%) | 1 (Herbicidal rate of 5% or more and less than 20%) | 5 (Herbicidal rate of 90% or more (almost completely withered)) | 3 (Herbicidal rate of 40% or more and less than 70%) | 3 (Herbicidal rate of 40% or more and less than 70%) | 5 (Herbicidal rate of 90% or more (almost completely withered)) | 3 (Herbicidal rate of 40% or more and less than 70%) | 5 (Herbicidal rate of 90% or more (almost completely withered)) | 5 (Herbicidal rate of 90% or more (almost completely withered)) | 5 (Herbicidal rate of 90% or more (almost completely withered)) | 4 (Herbicidal rate of 70% or more and less than 90%) | 5 (Herbicidal rate of 90% or more (almost completely withered)) | 0 (Herbicidal rate of 5% or less (almost no effect)) | 0 (Herbicidal rate of 5% or less (almost no effect)) | 0 (Herbicidal rate of 5% or less (almost no effect)) | 4 (Herbicidal rate of 70% or more and less than 90%) | 4 (Herbicidal rate of 70% or more and less than 90%) | 
CCCC(=O)Oc1c(C)nn(C)c(=O)c1-c1c(-c2ccccc2OCC)sc2cc(OC)ccc12 [3-071] | 4 (Herbicidal rate of 70% or more and less than 90%) | 5 (Herbicidal rate of 90% or more (almost completely withered)) | 5 (Herbicidal rate of 90% or more (almost completely withered)) | 5 (Herbicidal rate of 90% or more (almost completely withered)) | 4 (Herbicidal rate of 70% or more and less than 90%) | 5 (Herbicidal rate of 90% or more (almost completely withered)) | 3 (Herbicidal rate of 40% or more and less than 70%) | 5 (Herbicidal rate of 90% or more (almost completely withered)) | 5 (Herbicidal rate of 90% or more (almost completely withered)) | 4 (Herbicidal rate of 70% or more and less than 90%) | 5 (Herbicidal rate of 90% or more (almost completely withered)) | 5 (Herbicidal rate of 90% or more (almost completely withered)) | 3 (Herbicidal rate of 40% or more and less than 70%) | 3 (Herbicidal rate of 40% or more and less than 70%) | 2 (Herbicidal rate of 20% or more and less than 40%) | 5 (Herbicidal rate of 90% or more (almost completely withered)) | 5 (Herbicidal rate of 90% or more (almost completely withered)) | 
CCOc1cc(F)ccc1-c1sc2cc(OC)ccc2c1-c1c(O)c(C)nn(C)c1=O [3-078] |  |  |  |  |  |  |  |  |  |  |  |  |  |  |  |  |  | J: blackgrass, herbicidal effect grade [1, 20]: 5 (Herbicidal rate of 90% or more (almost completely withered)); herbicidal effect rating, B: Japanese bulrush ([2]; AAH 80 g/ha): 5 (Herbicidal rate of 90% or more (almost completely withered)); F: southern crabgrass, herbicidal effect grade ([3]; 80 g/ha): 5 (Herbicidal rate of 90% or more (almost completely withered)); Herbicidal effect, C: oval-leafed pondweed [4, 20]: 4 (Herbicidal rate of 70% or more and less than 90%); F: southern crabgrass, herbicidal effect grade [5, 20]: 4 (Herbicidal rate of 70% or more and less than 90%); R: persian speedwell, herbicidal effect grade ([6]; 80 g/ha): 5 (Herbicidal rate of 90% or more (almost completely withered)); I: wild oat, herbicidal effect grade [7, 20]: 0 (Herbicidal rate of 5% or less (almost no effect)); P: chickweed, herbicidal effect grade ([8]; 80 g/ha): 5 (Herbicidal rate of 90% or more (almost completely withered)); J: blackgrass, herbicidal effect grade ([9]; 80 g/ha): 4 (Herbicidal rate of 70% or more and less than 90%); K: Italian ryegrass, herbicidal effect grade ([10]; 80 g/ha): 4 (Herbicidal rate of 70% or more and less than 90%); Herbicidal effect, B: Japanese bulrush [11, 20]: 5 (Herbicidal rate of 90% or more (almost completely withered)); herbicidal effect on rice flat sedge (E) ([12]; 80 g/ha): 5 (Herbicidal rate of 90% or more (almost completely withered)); H: barnyard grass, herbicidal effect grade [13, 20]: 0 (Herbicidal rate of 5% or less (almost no effect)); O: lambsquarters, herbicidal effect grade [14, 20]: 4 (Herbicidal rate of 70% or more and less than 90%); K: Italian ryegrass, herbicidal effect grade [15, 20]: 3 (Herbicidal rate of 40% or more and less than 70%); P: chickweed, herbicidal effect grade [16, 20]: 5 (Herbicidal rate of 90% or more (almost completely withered)); R: persian speedwell, herbicidal effect grade [17, 20]: 5 (Herbicidal rate of 90% or more (almost completely withered))
